Assay results: article PMC5754923 (Journal of medicinal chemistry, 2017)
pEC50, pIC50, pKd: −log10 of the molar value. “Also recorded” adds a separate entry of the source. Read-outs that look alike come from different tables or passages of the source. Blank lines part the entries; values can stand above or below the compound they belong to.

Tests used:
[1] = biological target: T1, full intracellular domain of BTN3A1 (Homo sapiens, UniProt O00481); details: known Kd, ref not given; cited from earlier work
T1 sequence (O00481 272-513 limits assumed): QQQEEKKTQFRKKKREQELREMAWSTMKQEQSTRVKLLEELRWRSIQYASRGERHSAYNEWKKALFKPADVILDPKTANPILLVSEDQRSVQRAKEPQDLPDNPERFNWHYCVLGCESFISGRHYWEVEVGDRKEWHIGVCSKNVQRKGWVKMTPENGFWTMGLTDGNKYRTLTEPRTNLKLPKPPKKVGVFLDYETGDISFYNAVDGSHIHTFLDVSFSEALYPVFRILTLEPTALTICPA

K562 cells [2] = details: statement of the discussion, not tested here; ref not given; cited from earlier work
Vγ9Vδ2 T cells [3] = details: expansion from peripheral blood; ref [10]; cited from earlier work
K562 cells [4] = assay: K562 proliferation; type: cell-based, human
T cells = assay: Toxicity towards the T cells in the expansion assay; type: cell-based, human
[5] = HPLC and HPLC-MS analysis in aqueous acetonitrile; type: physicochemical
Vγ9Vδ2 T cells [6] = assay: Expansion of Vγ9Vδ2 T cells from peripheral blood; type: cell-based, human; details: for Stimulation of Vγ9Vδ2 T cell proliferation: 0.1 µM, CD3+/γδ TCR+ population; for Fold difference from salt: prodrug versus unprotected salt
[7] = biological target: T1, full intracellular domain of BTN3A1; assay: Isothermal titration calorimetry; type: binding; details: for Binding to BTN3A1: purified BTN3A1, direct titration
K562 cells [8] = assay: Vγ9Vδ2 T cell mediated lysis of K562 cells; details: for Fold difference from salt, lysis: 2 hour treatment/4 hour co-culture
[9] = presence of 10-fold higher compound 8
[10] = presence of 100-fold molar excess of compound 8

SMILES: C/C(=C\CP(=O)(O)OP(=O)(O)O)CO [C-HMBPP, (E)-4-hydroxy-3-methyl-but-2-enyl phosphonophosphate]
pKd [1]: 5.72

SMILES: C/C(=C\CCP(=O)(OCOC(=O)C(C)(C)C)OCOC(=O)C(C)(C)C)CO [Compound 2]
Direct toxicity (K562 cells [2]): not directly toxic

SMILES: C/C(=C\CCP(=O)(O)O)CO [Compound 3]
pEC50 (Vγ9Vδ2 T cells [3]): 5.40

Stability in aqueous acetonitrile [5]: some minor isomerization
pEC50 (Vγ9Vδ2 T cells [6]; Homo sapiens, T-cell): 7.39
Binding to BTN3A1 [7]: did not bind
SMILES: C/C(=C\CCP(=O)(CP(=O)(OCOC(=O)C(C)(C)C)OCOC(=O)C(C)(C)C)OCOC(=O)C(C)(C)C)CO (centres unmarked) [Compound 4, (E)-(((((5-Hydroxy-4-methylpent-3-en-1-yl)((pivaloyloxy)methoxy)phosphoryl)methyl)phosphoryl)bis(oxy))bis(methylene) bis(2,2-dimethylpropanoate)]
Fold difference from HMBPP, direct K562 toxicity (K562 cells [4]; 72 hour treatment): >29x
Fold difference from salt, direct K562 toxicity (K562 cells [4]; 72 hour treatment): >29x
Concentrations with toxicity towards the T cells (T cells; Figure 2B): ≥ 10 µM
Stimulation of Vγ9Vδ2 T cell proliferation (Vγ9Vδ2 T cells [6]): strongly stimulated proliferation
Fold difference from salt (Vγ9Vδ2 T cells [6]; EC50 ratio): 630 x
Fold difference from salt (Vγ9Vδ2 T cells [6]; EC50 ratio, listed as POM3-CC-HMBPP (4)): 630x (versus 10)
Fold difference in cellular activity between compound 4 and 11 (K562 cells [8]): 26 fold
Fold difference from salt, lysis (K562 cells [8]): 150 x
Fold difference from salt, lysis (K562 cells [8]; listed as POM3-CC-HMBPP (4)): 146x

SMILES: CC(C)=CCCP(=O)([O-])CP(=O)([O-])[O-].[Na+].[Na+].[Na+] [Compound 8, Sodium (((4-methylpent-3-en-1-yl)oxidophosphoryl)methyl)phosphonate]
pIC50 (T cells; Homo sapiens, T-cell): < 4.00
pEC50 (Vγ9Vδ2 T cells [6]; Homo sapiens, T-cell): < 4.00
Competition with HMBPP binding ([7]; 10x and 100x compound 8): capable of disrupting HMBPP binding in a dose-dependent manner
Binding to BTN3A1 [7]: too low to be measured directly; also recorded: intermediate affinity
pEC50 (K562 cells [8]; Homo sapiens, K562, 2 h, read-out: EC50, lysis of K562 cells by T cells): < 4.00

SMILES: COP(=O)(CC/C=C(\C)CO)CP(=O)(OC)OC (centres unmarked) [Compound 9, Dimethyl (E)-(((5-hydroxy-4-methylpent-3-en-1-yl)(methoxy)phosphoryl)methyl)phosphonate]
pIC50 (K562 cells [4]; read-out: IC50, direct K562 toxicity, 72 hour treatment): < 4.00
pIC50 (T cells; toxicity in T cell expansion assay): < 4.00
Agonist / biological activity (Vγ9Vδ2 T cells [6]): nor is biologically active
pEC50 (Vγ9Vδ2 T cells [6]; PBMC exposed 72 hours, grown 11 days, flow cytometry): < 4.00
Binding to BTN3A1 [7]: neither binds to the protein

SMILES: C/C(=C\CCP(=O)([O-])CP(=O)([O-])[O-])CO.[Na+].[Na+].[Na+] [Compound 10, Sodium (E)-(((5-hydroxy-4-methylpent-3-en-1-yl)oxidophosphoryl)methyl)phosphonate]
pIC50 (T cells; Homo sapiens, T-cell): < 4.00
pEC50 (Vγ9Vδ2 T cells [6]; Homo sapiens, T-cell): 4.59
Binding to BTN3A1 [7]: intermediate affinity

pEC50 (Vγ9Vδ2 T cells [6]; Homo sapiens, T-cell): < 4.00
SMILES: CC(C)=CCCP(=O)(CP(=O)(OCOC(=O)C(C)(C)C)OCOC(=O)C(C)(C)C)OCOC(=O)C(C)(C)C (centres unmarked) [Compound 11, (((((4-Methylpent-3-en-1-yl)((pivaloyloxy)methoxy)phosphoryl)methyl)phosphoryl)bis(oxy))bis(methylene) bis(2,2-dimethylpropanoate)]
Fold difference from HMBPP, direct K562 toxicity (K562 cells [4]; 72 hour treatment): >10x
Fold difference from salt, direct K562 toxicity (K562 cells [4]; 72 hour treatment): >10x
pIC50 (T cells; Homo sapiens, T-cell): < 4.00
Agonist / biological activity (Vγ9Vδ2 T cells [6]): No measurable agonist activity
Fold difference from HMBPP (Vγ9Vδ2 T cells [6]; EC50 ratio): <0.0000051x
Fold difference from salt, lysis (K562 cells [8]): >14x

TΔS of HMBPP binding ([7]; absence of compound 8): -4.54 kcal/mol
ΔH of HMBPP binding ([7]; absence of compound 8): -12.4 kcal/mol
TΔS of HMBPP binding [7, 9]: -1.1 kcal/mol
ΔH of HMBPP binding [7, 9]: -9.32 kcal/mol
TΔS of HMBPP binding [7, 10]: +28 kJ/mol
ΔH of HMBPP binding [7, 10]: -1.65 kcal/mol
SMILES: C/C(=C\COP(=O)(O)OP(=O)(O)O)CO [HMBPP, (E)-4-hydroxy-3-methyl-but-2-enyl diphosphate, reference compound]
Direct toxicity (K562 cells [4]): not directly toxic
Stimulation of Vγ9Vδ2 T cell proliferation (Vγ9Vδ2 T cells [6]): strongly stimulated proliferation
Hill slope, K562 lysis (K562 cells [8]; four parameter non-linear regression): 0.69

SMILES: C=C(C)CCOP(=O)(O)OP(=O)(O)O [IPP, isopentenyl diphosphate]
Direct toxicity (K562 cells [2]): not directly toxic

SMILES: O=P(O)(O)C(O)(Cc1cccnc1)P(=O)(O)O [risedronate]
Direct toxicity (K562 cells [2]): do exhibit direct toxicity

SMILES: O=P(O)(O)C(O)(Cn1ccnc1)P(=O)(O)O [zoledronate]
Direct toxicity (K562 cells [2]): do exhibit direct toxicity
